Source: PubChem BioAssay AID212 (DTP/NCI, 2004)
Values joined by “and” are separate entries in the source; they are usually repeats but may differ in a detail not shown here. Equal values may be shown once. Inconclusive results are not listed. Where a SMILES comes first, the peptide text is derived from it. Bridges are numbered along the chain shown (N, C = ends). Roman numbers before positions name the chains, in order. [ ]: non-standard residue; d: D form. The star is where a group is joined. Quinoxaline2carbonyl = O=C(c1cnc2ccccc2n1)*; NMeV = CN[CH](C(=O)O)C(C)C; NMeC = CN[CH](CS)C(=O)O

System: BDF1 mice, colon carcinoma 38 sc, T/C %
Assay: NCI In Vivo Anticancer Drug Screen. Data for tumor model Colon Carcinoma 38 (subcutaneous) in B6D2F1 (BDF1) mice
Conditions: endpoint: median tumor weight (est.), higher = larger tumour
Outline: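 Ratio of survival or tumor size, compound-treated animals relative to vehicle controls, in tumor-bearing mice.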

[1] = dose: 12.5 mg/kg/injection, schedule: Q07DX003 (ip), vehicle: Klucel (hydroxypropylcellulose) (HPC)
[2] = dose: 25.0 mg/kg/injection, schedule: Q07DX002 (ip), vehicle: Klucel (hydroxypropylcellulose) (HPC)

Question: What does the source list for `CC(=O)OCC1OC(n2cc(CBr)nn2)C(OC(C)=O)C(OC(C)=O)C1OC(C)=O` (configuration not stated)?
Answer: T/C (dose: 6.25 mg/kg/injection, schedule: Q07DX003 (ip), vehicle: Klucel (hydroxypropylcellulose) (HPC)): 46 % of control; T/C (dose: 6.25 mg/kg/injection, schedule: Q07DX003 (ip), vehicle: saline with Tween-80): 120 % of control; T/C [1]: 93 % of control; T/C (dose: 12.5 mg/kg/injection, schedule: Q07DX003 (ip), vehicle: saline with Tween-80): 67 % of control; T/C (dose: 25.0 mg/kg/injection, schedule: Q07DX003 (ip), vehicle: Klucel (hydroxypropylcellulose) (HPC)): 120 % of control; T/C (dose: 25.0 mg/kg/injection, schedule: Q07DX003 (ip), vehicle: saline with Tween-80): 90 % of control; T/C (dose: 50.0 mg/kg/injection, schedule: Q07DX003 (ip), vehicle: saline with Tween-80): 53 % of control; T/C (dose: 100.0 mg/kg/injection, schedule: Q07DX003 (ip), vehicle: saline with Tween-80): 64 % of control

Question: With `C=CC(=O)NCNC(=O)C=C` as the compound, how does the T/C (dose: 12.5 mg/kg/injection, schedule: Q07DX002 (ip), vehicle: saline) read?
Answer: 164 % of control

Question: And the T/C (dose: 100.0 mg/kg/injection, schedule: Q07DX002 (ip), vehicle: saline)?
Answer: 100 % of control

Question: What about the T/C (dose: 200.0 mg/kg/injection, schedule: Q07DX002 (ip), vehicle: saline) of the same compound?
Answer: 89 % of control and 97 % of control

Question: What about the T/C (dose: 400.0 mg/kg/injection, schedule: Q07DX002 (ip), vehicle: saline) of the same compound?
Answer: 35 % of control

Question: With `O=C(O)/C=C/C(=O)Nc1ccc(Cl)c(Cl)c1` as the compound, how does the T/C [1] read?
Answer: 84 % of control

Question: What about the T/C [2] of the same compound?
Answer: 67 % of control

Question: What about the T/C (dose: 50.0 mg/kg/injection, schedule: Q07DX002 (ip), vehicle: Klucel (hydroxypropylcellulose) (HPC)) of the same compound?
Answer: 77 % of control

Question: And the T/C (dose: 50.0 mg/kg/injection, schedule: Q07DX003 (ip), vehicle: Klucel (hydroxypropylcellulose) (HPC))?
Answer: 69 % of control

Question: What about the T/C (dose: 100.0 mg/kg/injection, schedule: Q07DX002 (ip), vehicle: Klucel (hydroxypropylcellulose) (HPC)) of the same compound?
Answer: 78 % of control

Question: What about the T/C (dose: 100.0 mg/kg/injection, schedule: Q07DX003 (ip), vehicle: Klucel (hydroxypropylcellulose) (HPC)) of the same compound?
Answer: 122 % of control

Question: What about the T/C (dose: 200.0 mg/kg/injection, schedule: Q07DX002 (ip), vehicle: Klucel (hydroxypropylcellulose) (HPC)) of the same compound?
Answer: 67 % of control

Question: What does the source list for `CC1(CO)C(O)CCC2(C)C1CCC1CC3CC12CCC3(O)CO` (configuration not stated)?
Answer: T/C (dose: 12.5 mg/kg/injection, schedule: Q07DX002 (ip), vehicle: saline with Tween-80): 120 % of control; T/C (dose: 25.0 mg/kg/injection, schedule: Q07DX002 (ip), vehicle: saline with Tween-80): 103 % of control; T/C (dose: 50.0 mg/kg/injection, schedule: Q07DX002 (ip), vehicle: saline with Tween-80): 100 % of control; T/C (dose: 100.0 mg/kg/injection, schedule: Q07DX002 (ip), vehicle: saline with Tween-80): 124 % of control; T/C (dose: 200.0 mg/kg/injection, schedule: Q07DX002 (ip), vehicle: saline with Tween-80): 77 % of control; T/C (dose: 400.0 mg/kg/injection, schedule: Q07DX002 (ip), vehicle: saline with Tween-80): 89 % of control

Question: For `O=c1cc(-c2ccccc2)[nH]c2c1CCCC2`, which T/C (dose: 900.0 mg/kg/injection, schedule: Q07DX002 (ip), vehicle: saline with Tween-80) is on record?
Answer: 101 % of control

Question: What does the source list for `CCCCCC[Se][Se]CCCCCC`?
Answer: T/C (dose: 3.12 mg/kg/injection, schedule: Q07DX002 (ip), vehicle: Klucel (hydroxypropylcellulose) (HPC)): 100 % of control; T/C [2]: 95 % of control

Question: For `O=C1C=C2C(=CCOC2O)O1` (configuration not stated), which T/C (dose: 0.75 mg/kg/injection, schedule: Q07DX002 (ip), vehicle: saline) is on record?
Answer: 91 % of control

Question: What about the T/C (dose: 1.0 mg/kg/injection, schedule: Q07DX002 (ip), vehicle: water) of the same compound?
Answer: 98 % of control

Question: And the T/C (dose: 1.5 mg/kg/injection, schedule: Q07DX002 (ip), vehicle: saline)?
Answer: 72 % of control

Question: What about the T/C (dose: 2.0 mg/kg/injection, schedule: Q07DX002 (ip), vehicle: water) of the same compound?
Answer: 90 % of control

Question: And the T/C (dose: 4.0 mg/kg/injection, schedule: Q07DX002 (ip), vehicle: water)?
Answer: 117 % of control

Question: What does the source list for `CC1NC(=O)C(NC(=O)c2cnc3ccccc3n2)COC(=O)C(C(C)C)N(C)C(=O)C2CSSCC(C(=O)N(C)C(C(C)C)C(=O)OCC(NC(=O)c3cnc4ccccc4n3)C(=O)NC(C)C(=O)N2C)N(C)C1=O` (configuration not stated) (I: Quinoxaline2carbonyl-SA[NMeC][NMeV] / II: Quinoxaline2carbonyl-SA[NMeC][NMeV]; ester I:1-II:C, I:C-II:1; disulfide I:3-II:3; configuration not given here)?
Answer: T/C (dose: 25.0 micrograms/kg/injection, schedule: Q07DX002 (ip), vehicle: Klucel (hydroxypropylcellulose) (HPC)): 102 % of control; T/C (dose: 50.0 micrograms/kg/injection, schedule: Q07DX002 (ip), vehicle: Klucel (hydroxypropylcellulose) (HPC)): 74 % of control; T/C (dose: 100.0 micrograms/kg/injection, schedule: Q07DX002 (ip), vehicle: Klucel (hydroxypropylcellulose) (HPC)): 84 % of control; T/C (dose: 200.0 micrograms/kg/injection, schedule: Q07DX002 (ip), vehicle: Klucel (hydroxypropylcellulose) (HPC)): 95 % of control
